{"source": "patent US9895438B2", "about": "“Treatment of cancer with naltrexone” (Cancer Vaccine Institute, priority 2013, dated 2018)", "key": {"TLR4 [1]": {"molecular_target": "T1, TLR4 (Homo sapiens, UniProt O00206+Q9Y6Y9)", "T1 construct": "host or cells: HEK-293", "T1 sequence (O00206 24-839, species assumed)": "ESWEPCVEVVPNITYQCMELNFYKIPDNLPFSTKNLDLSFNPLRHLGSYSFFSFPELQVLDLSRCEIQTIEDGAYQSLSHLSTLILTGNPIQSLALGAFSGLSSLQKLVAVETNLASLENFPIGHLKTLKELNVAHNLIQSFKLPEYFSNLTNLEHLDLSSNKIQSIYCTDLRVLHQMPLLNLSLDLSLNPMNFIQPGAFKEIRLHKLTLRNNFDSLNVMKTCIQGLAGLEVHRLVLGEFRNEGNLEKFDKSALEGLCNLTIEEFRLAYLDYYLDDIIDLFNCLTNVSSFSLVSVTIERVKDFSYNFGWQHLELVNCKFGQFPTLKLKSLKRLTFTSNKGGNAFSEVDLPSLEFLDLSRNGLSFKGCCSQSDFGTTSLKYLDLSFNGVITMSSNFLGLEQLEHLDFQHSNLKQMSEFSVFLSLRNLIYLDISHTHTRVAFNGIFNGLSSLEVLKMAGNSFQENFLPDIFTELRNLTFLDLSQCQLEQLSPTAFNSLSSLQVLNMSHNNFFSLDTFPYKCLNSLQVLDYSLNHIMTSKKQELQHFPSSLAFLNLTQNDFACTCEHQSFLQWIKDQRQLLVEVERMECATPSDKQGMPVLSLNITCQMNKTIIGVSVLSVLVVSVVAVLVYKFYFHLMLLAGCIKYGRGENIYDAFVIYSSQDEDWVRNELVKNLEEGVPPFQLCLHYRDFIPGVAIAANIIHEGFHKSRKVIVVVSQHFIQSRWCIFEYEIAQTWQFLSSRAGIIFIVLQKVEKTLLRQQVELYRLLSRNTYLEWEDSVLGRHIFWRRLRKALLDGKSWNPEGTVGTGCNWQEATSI", "T1 sequence (Q9Y6Y9 17-160 limits assumed, species assumed)": "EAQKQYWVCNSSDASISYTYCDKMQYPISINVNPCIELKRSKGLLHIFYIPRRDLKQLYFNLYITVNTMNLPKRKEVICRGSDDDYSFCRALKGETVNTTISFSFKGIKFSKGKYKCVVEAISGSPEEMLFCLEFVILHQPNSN", "details": "Hutchinson et al. (2008); cited from earlier work"}, "TLR4 [2]": {"molecular_target": "T1, TLR4", "assay": "TLR4 antagonist assay, HEK-293 transfectants with alkaline phosphatase reporter gene (Invivogen panel)", "assay_type": "cell-based", "details": "1 μM naltrexone, O.D. readout (FIG. 1)", "description": "(§1) Samples and controls were tested in duplicate on recombinant HEK-293 cell lines expressing the various TLR and NOD receptors with an alkaline phosphatase reporter gene. Cells were incubated with or without 1 μM naltrexone in an antagonist assay using the Invivogen panel of TLR and NOD signalling transfectants. Results shown are for TLR4 and TLR9, TLR activation results are given as optical density (O.D.) values, which have been confirmed in three independent experiments.\n(§2) Low dose naltrexone (LDN) was tested in agonist and antagonist assays on a panel of TLR and NOD transfectants (TLR2, TLR3, TLR4, TLR5, TLR7, TLR8, TLR9, NOD1, NOD2). Screening assays were performed by Cayla-Invivogen (Toulouse, France)."}, "[3]": {"system": "TLR2, TLR3, TLR4, TLR5, TLR7, TLR8, TLR9, NOD1, NOD2", "assay": "Agonist assays on panel of TLR and NOD transfectants", "assay_type": "cell-based", "details": "TLR2, 3, 4, 5, 7, 8, 9, NOD1, NOD2", "description": "as §1, §2"}, "TLR9": {"molecular_target": "T2, TLR9 (Homo sapiens, UniProt Q9NR96)", "T2 construct": "host or cells: HEK-293", "T2 sequence (Q9NR96 26-1032)": "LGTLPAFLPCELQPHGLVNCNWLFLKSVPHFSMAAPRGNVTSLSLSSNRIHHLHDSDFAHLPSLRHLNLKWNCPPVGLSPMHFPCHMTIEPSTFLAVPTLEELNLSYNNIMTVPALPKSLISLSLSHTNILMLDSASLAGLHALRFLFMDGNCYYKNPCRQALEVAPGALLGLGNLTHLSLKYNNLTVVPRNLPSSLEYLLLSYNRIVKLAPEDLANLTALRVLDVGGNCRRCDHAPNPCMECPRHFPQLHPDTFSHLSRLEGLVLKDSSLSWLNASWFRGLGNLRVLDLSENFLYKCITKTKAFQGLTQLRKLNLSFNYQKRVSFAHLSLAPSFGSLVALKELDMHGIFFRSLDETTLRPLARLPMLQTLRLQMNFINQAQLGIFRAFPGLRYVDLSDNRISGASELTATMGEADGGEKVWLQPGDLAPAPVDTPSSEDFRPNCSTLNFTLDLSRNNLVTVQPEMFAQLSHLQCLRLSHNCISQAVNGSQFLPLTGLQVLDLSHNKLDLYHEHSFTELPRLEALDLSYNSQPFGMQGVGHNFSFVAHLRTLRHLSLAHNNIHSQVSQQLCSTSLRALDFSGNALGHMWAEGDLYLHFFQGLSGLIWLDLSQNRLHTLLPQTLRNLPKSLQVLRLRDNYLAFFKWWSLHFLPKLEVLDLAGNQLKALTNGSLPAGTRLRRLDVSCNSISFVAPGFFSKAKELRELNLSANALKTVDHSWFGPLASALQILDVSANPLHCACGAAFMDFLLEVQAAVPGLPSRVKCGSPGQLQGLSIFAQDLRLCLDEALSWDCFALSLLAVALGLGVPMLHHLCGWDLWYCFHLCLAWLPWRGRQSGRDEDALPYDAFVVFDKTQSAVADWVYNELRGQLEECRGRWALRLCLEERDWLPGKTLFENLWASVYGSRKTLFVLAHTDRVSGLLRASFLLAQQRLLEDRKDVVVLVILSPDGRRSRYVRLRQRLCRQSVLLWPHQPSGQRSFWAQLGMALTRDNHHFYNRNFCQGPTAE", "assay": "TLR9 antagonist assay, HEK-293 transfectants with alkaline phosphatase reporter gene (Invivogen panel)", "assay_type": "cell-based", "description": "as §1, §2"}, "metastatic melanoma": {"system": "metastatic melanoma", "assay": "Patient with chemotherapy-resistant metastatic melanoma treated with LDN"}, "[4]": {"system": "hormone-refractory prostate cancer", "assay": "Patient with hormone-refractory prostate cancer treated with Mycobacterium vaccae plus LDN", "assay_type": "in vivo, human", "details": "one patient, LDN added to Mycobacterium vaccae treatment"}}, "note": "“Also recorded” adds a separate entry of the source. Read-outs that look alike come from different tables or passages of the source.", "data": [{"smiles": "O=C1CC[C@@]2(O)[C@H]3Cc4ccc(O)c5c4[C@@]2(CCN3CC2CC2)[C@H]1O5", "note": "[LDN, morphinan-6-one,17-(cyclopropylmethyl)-4,5-epoxy-3,14-dihydroxy-(5α)]", "values": [{"measurement": "antagonism of TLR4", "setting": "TLR4 [1]", "result": "weakly antagonise TLR4"}, {"measurement": "antagonism of TLR4", "setting": "TLR4 [2]", "result": "mild antagonistic effect; also recorded: mild antagonist effect"}, {"measurement": "stimulation of signalling (agonism) through TLR and NOD receptors", "setting": "[3]", "result": "did not stimulate signalling through any of the receptors tested"}, {"measurement": "antagonism of TLR9 (recognition of CpG DNA)", "setting": "TLR9; antagonist assay, 1 μM naltrexone, O.D. readout (FIG. 1)", "result": "striking antagonistic effect; also recorded: inhibited recognition of CpG DNA"}, {"measurement": "IC50", "setting": "TLR9; titration, TLR9-transfected cell line, naltrexone diluted in PBS or H2O (FIG. 2), read-out: IC50 for inhibition of TLR9", "result": "~50", "unit": "µM"}, {"measurement": "time to development of vitiligo", "setting": "metastatic melanoma; after administration of low dose naltrexone", "result": "≤ 48", "unit": "h"}, {"measurement": "development of vitiligo (sign of activated cytotoxic T cells against melanoma antigens)", "setting": "metastatic melanoma; one patient previously given vaccine and radiotherapy, LDN as supportive treatment prior to more radiotherapy", "result": "marked vitiligo"}, {"measurement": "prostate-specific antigen levels", "setting": "[4]", "result": "drop in prostate-specific antigen levels"}]}]}
